{"source": "patent US8808879B2", "about": "“Phototherapy devices and methods comprising substituted carbazole compounds” (Nitto Denko Corporation, priority 2010, dated 2014)", "key": {"actinic keratoses": {"system": "actinic keratoses", "experiment": "Photodynamic treatment of actinic keratoses lesions with topical photosensitiser pro-drug and red OLED", "details": "20% topical solution, illuminated with red OLED about 14-18 hours after application"}, "[1]": {"system": "CHO-K1 (Chinese Hamster Ovarian Cancer, ATCC, CRL-2243) cell line", "experiment": "Ex-vivo photodynamic efficacy study of ALA with red OLED light (microscopy, PpIX fluorescence, MTT cell viability)"}, "pathological myopia": {"system": "pathological myopia", "experiment": "Verteporphin photodynamic therapy of pathological myopia with red OLED", "assay_type": "in vivo, person", "details": "about 6 mg/m^2 intravenously, retina illuminated with red OLED about 15 minutes after start of infusion"}, "[2]": {"system": "presumed ocular histoplasmosis", "parameters": "species or system person", "details": "in vivo, iv"}, "[3]": {"system": "age-related macular degeneration", "experiment": "Verteporphin photodynamic therapy of age-related macular degeneration with red OLED", "assay_type": "in vivo, person", "details": "about 6 mg/m^2 intravenously, retina illuminated with red OLED about 15 minutes after start of infusion"}}, "data": [{"smiles": "Cl.NCC(=O)CCC(=O)O", "note": "[5-Aminolevulinic acid HCl]", "values": [{"measurement": "number or severity of the lesions after the treatment", "setting": "actinic keratoses", "value": "reduced"}]}, {"smiles": "NCC(=O)CCC(=O)O", "note": "[ALA, 5-aminolevulinic acid]", "values": [{"measurement": "cytotoxicity at 1000 µM", "setting": "[1]; Cricetulus griseus, CHO-K1, light or radiation study, read-out: cell destroyed compared with reference (MTT cell viability)", "value": "~90", "unit": "%"}, {"measurement": "cell morphology under optical microscope after light irradiation", "setting": "[1]; after 25 J/cm^2 red light irradiation, leafy type cells transform to droplet type (FIG. 9)", "value": "significant and irreversible cell death"}, {"measurement": "concentration of ALA required", "setting": "[1]; at the light dose of 27 J/cm^2", "value": "at least 1 mM"}]}, {"smiles": "C=Cc1c(C)c2cc3nc(cc4[nH]c(cc5nc(cc1[nH]2)C(C)=C5CCC(=O)O)c(CCC(=O)OC)c4C)[C@@]1(C)C3=CC=C(C(=O)OC)[C@H]1C(=O)OC", "note": "[Verteporphin]", "values": [{"measurement": "patient's vision after treatment", "setting": "pathological myopia", "value": "stabilized"}, {"measurement": "patient's vision after treatment", "setting": "[2]", "value": "stabilized"}, {"measurement": "patient's vision after treatment", "setting": "[3]", "value": "stabilized"}]}]}
